According to paper PMC7806935, “Exosite inhibition of ADAMTS-5 by a glycoconjugated arylsulfonamide” (Scientific Reports, 2021):

Target: T1, ADAMTS-4 (Homo sapiens, UniProt O75173)
T1 construct: made in house
T1 sequence (O75173 213-837): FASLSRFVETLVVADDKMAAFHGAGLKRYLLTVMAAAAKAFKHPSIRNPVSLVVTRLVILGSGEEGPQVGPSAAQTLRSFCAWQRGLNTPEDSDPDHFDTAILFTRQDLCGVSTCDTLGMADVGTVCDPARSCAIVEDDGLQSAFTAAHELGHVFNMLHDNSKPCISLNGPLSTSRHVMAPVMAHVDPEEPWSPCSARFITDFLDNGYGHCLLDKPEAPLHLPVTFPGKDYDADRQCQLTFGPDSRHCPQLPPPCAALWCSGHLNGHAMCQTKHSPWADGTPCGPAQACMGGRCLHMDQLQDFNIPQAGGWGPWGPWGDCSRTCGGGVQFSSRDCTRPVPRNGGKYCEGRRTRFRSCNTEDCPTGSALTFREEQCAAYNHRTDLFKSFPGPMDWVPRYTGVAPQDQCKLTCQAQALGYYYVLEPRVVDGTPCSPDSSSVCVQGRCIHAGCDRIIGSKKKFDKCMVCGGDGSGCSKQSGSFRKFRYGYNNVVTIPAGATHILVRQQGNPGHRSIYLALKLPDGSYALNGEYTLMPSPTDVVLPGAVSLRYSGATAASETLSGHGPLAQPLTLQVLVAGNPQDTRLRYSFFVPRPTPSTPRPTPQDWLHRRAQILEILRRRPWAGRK
Test: Versican digestion assay (V1-5GAG, sandwich ELISA), ADAMTS-4
Assay type: biochemical
Details: protein substrate V1-5GAG; mean ± SEM (n = 3); read-out: IC50 (μM) V1-5GAG ATS4
Protocol: All enzyme assays were conducted in TNC-B buffer (50 mM Tris–HCl, pH 7.5, 150 mM NaCl, 10 mM CaCl2, and 0.02% NaN3) at 37 °C. To avoid the formation of inhibitor aggregates, the detergent Brij-35 (0.05%) was added to the assay buffer. No aggregation was visually observed at concentrations up to 2 mM. The inhibitor stock solutions in DMSO (10 mM) were diluted at different concentrations in assay buffer and incubated with ADAMTS-4 or ADAMTS-5 for 2 h at 37 °C. Percent of inhibition was calculated from control reactions containing only DMSO. IC50 values were determined using the formula: vi/v0 = 1/(1 + [I]/IC50) where vi is the initial velocity of substrate cleavage in the presence of the inhibitor at concentration [I] and v0 is the initial velocity in the presence of an equal concentration (v/v) of DMSO.
ADAMTS-5 full-length (FL) (final concentration 0.4 nM), ADAMTS-5 MDTCS (0.4 nM) ADAMTS-5 MD (26 nM) or ADAMTS-4 (5.5 nM) were incubated with different concentrations of inhibitors or DMSO for 2 h at 37 °C in TNC-B buffer before addition of V1-5GAG (50 nM). At different time points (0–20 min), sub-samples were removed and reactions were stopped with EDTA. Maxisorp plates (VWR, Lutterworth, UK) were coated with 5 μg/mL anti-DPEEAE neoepitope antibody (Cat n. PA1-1748A, Life Technologies, Paisley, UK) in carbonate buffer pH 9.6 (16 h, 4 °C). This neoepitope antibody specifically recognizes the N-terminal versican fragment versikine, generated when ADAMTS-5 cleaves versican at the Glu441↓442Ala bond. Washing steps were performed in triplicate with 300 μL phosphate buffered-saline (PBS) containing 0.1% Tween-20 between each step. Plates were blocked with 3% bovine serum albumin (BSA)/PBS for 2 h, at RT. The samples from the digestion experiments were diluted in 3% BSA/PBS and added to the plate (100 μL, 2 h, RT). Bound versikine fragments were detected using anti-G1 monoclonal antibody (Cat n. ab171887, Abcam, Cambridge, UK) (3 μg/mL in 0.5% BSA/PBS, 1.5 h, RT), followed by horseradish peroxidase (HRP)-conjugated anti-mouse antibodies (Cat. N. P044701-2, Agilent Technologies LTD, Cheadle, UK) (2.4 μg/mL, 1 h, RT). The assay was developed by addition of o-phenylenediamine dihydrochloride (OPD, Cat n. 34006, Sigma Aldrich, Gillingham, UK) for 10 min and reactions were stopped with 2 M H2SO4. The absorbance was measured at 492 nm using a BioTeK Epoch (BioTek, Swindon, UK) plate reader. For each dilution, the amount of neoepitope generated was derived from a standard curve (0–1.56 nM) of V1-5GAG completely digested with ADAMTS-5. Initial velocities were calculated from the concentration of versikine generated as a function of reaction time and IC50 values were determined.
For inhibition studies, initial rates of proteolysis (< 20% cleavage) were analyzed between 0 and 20 min. For determination of the specificity constants (kcat/Km), digestion reactions were allowed to occur to completion (0–2 h). Data were analyzed as previously described.

IC50 [µM] | Compound
> 100 | CCC(C)N(Cc1cn(CCCOC2OC(CO)C(O)C(O)C2NC(C)=O)nn1)S(=O)(=O)c1ccc(-c2ccccc2)cc1 (mixture of isomers) [Compound 4b]
> 100 | CCC(C)N(Cc1cn(CCCOC(=O)c2ccccc2)nn1)S(=O)(=O)c1ccc(-c2ccccc2)cc1 (racemic) [Compound 6]
